Measured values published in patent US12594282B2, “Use of small molecule compounds in the treatment of diseases mediated by lung epithelial cell injury and/or vascular endothelial cell injury” (Guangzhou Cellprotek Pharmaceutical Co., Ltd., priority 2020, dated 2026).

Columns and labels:
[1] = system: primary cerebellar granule neuron; assay: Intracellular lactate assay in glutamate-stimulated primary cerebellar granule neurons; format: cell-based, mice; details: 10 μM, pre-incubation 20 mins; 200 μM glutamate for 15 mins
Procedure: The cells were obtained from SD P7-8 neonatal mice. The cerebellum was taken, and the meninges and blood vessels were removed using microtweezers; the isolated cerebellar tissue was transferred to another dish containing dissection solution. The tissue was cut into pieces as small as possible using a tissue scissor. Digestion: The tissue in pieces was added into 7 mL of 0.25% trypsin digestive solution with a pipet, and was digested at 37° C. for 15 mins; the bench surface was cleaned and the instruments were washed. The container was turned upside down several times every five minutes to bring the tissue into better contact with the digestive solution. End of digestion: After the digestion, it can be seen that the tissue was sticked together and suspended in the liquid due to cell disruption and release of DNA. The digestion was terminated by adding 3 mL of RNase-containing 10% FBS DMEM medium. […] The cells were counted with a hand-held cell counter, and the seeding density was 4.0-5.0×10^5 cells/mL. […]
Pretreatment: The number of cells used for the determination of intracellular lactate content was 1-2*10^6. […] Centrifugation was performed at 16,000 g for 5 mins at 4° C., 160 μL of supernatant was collected into a new EP tube, and the remaining supernatant was subjected to BCA protein quantification. […]

[2] = system: NR4A3 mRNA; assay: NR4A3 mRNA under OGD-R, RAOEC (real-time fluorescent quantitative PCR); format: cell-based, rat; details: 10 μM given at restoration
Procedure: HUVEC cells were cultured in modified DMEM medium containing 10% fetal bovine serum. When the cells reached about 80% confluence, the cells were digested with 0.25% trypsin, and then pipetted evenly with modified DMEM containing 10% […]. The cell concentration was adjusted to 1×10^5 cells/mL, and the cells were seeded at 400 uL/well in a 24-well plate, and the experiment was carried out when the cells grew to about 70% confluence. RAOEC cells were cultured in high-glucose DMEM medium containing 10% fetal bovine serum, and the seeding conditions were the same as those of HUVEC. During the OGD-R injury treatment, the hypoxia workstation was set to have an oxygen concentration of 1% (1% O2, 5% CO2, 94% N2), a temperature of 37° C., and a humidity of 85%. A sugar-free DMEM medium was placed in the hypoxia workstation for pre-hypoxia for 3 hours. The medium in the culture plate was aspirated, and the plate was washed twice with preheated sugar-free DMEM medium, and 100 uL of sugar-free DMEM medium was added to each well. The culture plate was placed in the hypoxia workstation, and 300 uL of pre-hypoxic sugar-free DMEM medium was added to each well, and then the culture plate was placed in the hypoxia workstation for additional hypoxia for 4 hours. Restoration was then performed. […]

Structure (SMILES): C[C@@]12CCCC1C1C[C@@H](O)[C@]3(O)C[C@@H](O)CC[C@]3(C)C1CC2 (stereo partly drawn) [YC-6, 5α-androst-3β,5,6β-triol]
- glutamate-induced intracellular accumulation of lactate [1]: significantly inhibited the accumulation of lactate
- transcription level of NR4A3 (relative mRNA expression) [2]: did not significantly up-regulate the transcription level of NR4A3
